Values quoted from earlier work as cited in US20050070524A1, “Compositions of a cyclooxygenase-2 selective inhibitor and an anticonvulsant agent for the treatment of central nervous system disorders” (Pharmacia Corporation, priority 2003, published 2005).

Experiments:
[1] = tested on: high-voltage-activated Ca^2+ currents; conditions: rat cortical neurons
[2] = tested on: high-voltage-activated Ca^2+ channels; conditions: isolated CA1 hippocampal neurons of rats

Row | SMILES | inhibition of high-voltage-activated Ca^2+ currents [1] | inhibition of high-voltage-activated Ca^2+ channels [2]
1 | Nc1nnc(-c2cccc(Cl)c2Cl)c(N)n1 [lamotrigine] | large dose-dependent inhibition | –
2 | CC[C@@H](C(N)=O)N1CCCC1=O [levetiracetam] | – | directly and irreversibly inhibited
